Measured values: paper PMC7083565, “In vitro metabolism, reaction phenotyping, enzyme kinetics, CYP inhibition and induction potential of ataluren” (Pharmacology Research & Perspectives, 2020)
Like-named read-outs stand apart in the source and are kept apart here.

Test: Ataluren glucuronidation kinetics, human liver microsomes
Assay type: in vitro ADME
Conditions: for CLint,u,UGT (scaled) / K m / K m, u / V max: HLM; for CLint,u,UGT (scaled): 40.0 mg protein/g tissue; for K m / K m, u / V max: mean ± SE; for K m / K m, u / V max / fraction unbound at 15 min: n = 3; for fraction unbound at 15 min: human, pooled human liver microsomes incubation mixture, pH 7.5, HLM, mean ± SD, read-out: fu,inc
Procedure: Ataluren at 0.5, 2.5, 12.5, 25, 50, 100, 200, and 400 µmol/L, was incubated (n = 3) at 37°C with recombinant human UGT1A9 and with pooled microsomes from human liver, kidney, and intestine (0.025 mg protein/mL, preactivated with alamethicin at 20 µg/mL) in Tris‐HCl buffer (0.1 mol/L, pH 7.5), in the presence of 1 mmol/L EDTA, 5 mmol/L MgCl2, with or without 0.5%, 1%, or 2% BSA. The incubation (100 µL final volume with 0.5% DMSO) was started by adding an equal volume of UDPGA (5 mmol/L) in Tris‐HCl buffer (0.1 mol/L, pH 7.5). After 30 minutes incubation, the incubation mixtures were combined with 0.3 mL of an internal standard solution in acetonitrile with 1% formic acid, followed by membrane plate filtration. The filtrates were used for LC‐MS/MS analysis to quantify the formation of ataluren‐O‐1β‐acyl glucuronide. Detailed LC‐MS/MS conditions are summarized in LC‐MS/MS Analysis section. Ataluren acyl glucuronide formation rate after 30 minutes incubation was calculated using the amount of metabolite formed (pmol) divided by the protein amount in the incubation sample (0.0025 mg) and the incubation time (30 minutes). Ataluren glucuronidation kinetic parameters were determined with and without adjusting BSA binding by nonlinear regression (GraphPad Prism, 5version 5.04, GraphPad Software, Inc.) using Michaelis‐Menten equation which was the best fit compared with other models. The intrinsic clearance was calculated as CLint = Vmax/Km. In order to compare unbound intrinsic clearance by glucuronidation (CLint,u,UGT) in different tissues, CLint,u,UGT was expressed per gram of tissue by correcting the values for the microsomal protein yield, resulting in scaled CLint,u,UGT. Microsomal protein yields of 40.0, 12.8, and 20.6 mg protein/g tissue were used for hepatic, renal, and intestinal data, respectively. ^26
The high‐throughput membrane ultrafiltration method ^27 was used to determine the fraction unbound in the incubation (n = 3). Incubation mixtures and procedures were essentially the same as the above except that UDPGA (5 mmol/L) was replaced with Tris‐HCl buffer (0.1 mol/L, pH 7.5). After 15 minutes incubation, aliquot was transferred to a Millipore Multiscreen Ultracel‐10 filter plate (10 kDa molecular mass cut off; EMD Millipore). The plate was centrifuged at 37°C and 3710 g. After 30 minutes centrifugation, aliquots of ultrafiltrates and incubation mixtures prior to ultrafiltration were quenched with an internal standard solution in acetonitrile, followed by membrane plate filtration. The filtrates were used for LC‐MS/MS analysis to quantify the concentration of ataluren. The same LC‐MS/MS conditions described above are summarized in LC‐MS/MS Analysis section. The free fraction = Cu/Cm, where Cu is the concentration of ataluren in the ultrafiltrate and Cm is the concentration of ataluren in the incubation system before centrifugation. Unbound Km (Km, u) was recalculated by applying Michaelis‐Menten equation using free ataluren concentrations after correcting BSA binding at each ataluren and BSA concentration level.
Quantification of ataluren‐O‐1β‐acyl glucuronide formation was conducted on an Accela pump and a PAL autosampler equipped with a TSQ Quantum Ultra mass spectrometer (Thermo Fisher Scientific). A Waters Acquity BEH column (C18, 1.7 µm, 50 × 2.1 mm; Waters Cooperation) was used and maintained at 50°C. The mobile phases were 0.1% formic acid in water (A) and acetonitrile (B). The flow rate was 0.6 mL/min and gradient program was as follows: linear gradient from 0% B to 95% B in 0.5 minutes and hold isocratic at 95% B for 1 minute; linear gradient from 95% B to 0% B in 0.1 minutes and hold isocratic at 0% B for 0.4 minutes. TSQ Quantum Ultra mass spectrometer was equipped with a heated electrospray ionization source operated in negative‐ion mode with a vaporizer temperature of 350°C, capillary temperature of 380°C, and spray voltage of 3 kV. […]

Question: What does the source list for `O=C(O)c1cccc(-c2noc(-c3ccccc3F)n2)c1` [ataluren, Ataluren]?
Answer: CLint,u,UGT (scaled) (0% BSA): 1.61 mL/min/g of tissue; K m (0% BSA): 29.9 ± 4.49 µM; K m, u (0% BSA): 29.9 ± 4.49 µM; V max (0% BSA): 1204 ± 49.0 pmol/min/mg; CLint,u,UGT (scaled) (0.5% BSA): 13.0 mL/min/g of tissue; K m (0.5% BSA): 54.3 ± 9.42 µM; K m, u (0.5% BSA): 4.50 ± 0.748 µM; V max (0.5% BSA): 1465 ± 68.2 pmol/min/mg; CLint,u,UGT (scaled) (1% BSA): 16.9 mL/min/g of tissue; K m (1% BSA): 67.9 ± 9.19 µM; K m, u (1% BSA): 3.00 ± 0.415 µM; V max (1% BSA): 1264 ± 53.5 pmol/min/mg; CLint,u,UGT (scaled) (2% BSA): 12.5 mL/min/g of tissue; K m (2% BSA): 108 ± 10.7 µM; K m, u (2% BSA): 2.83 ± 0.315 µM; V max (2% BSA): 886 ± 34.7 pmol/min/mg; maximal effect of BSA on CLint,u (increase) (human liver microsomes, with vs without BSA): ~10 fold; fraction unbound at 15 min (0% BSA): 1 ± 0.12; fraction unbound at 15 min (0.5% BSA): 0.093 ± 0.006; fraction unbound at 15 min (1% BSA): 0.05 ± 0.007; fraction unbound at 15 min (2% BSA): 0.03 ± 0.005
